Like-named read-outs stand apart in the source and are kept apart here.
How the values were obtained:
RSV [1] = assay: Viral inactivation assay; type: cell-based, respiratory syncytial virus; details: for block of infection after pre-incubation of free virus with compound: RSV, CHLA 1 μM, PUG 2 μM, Figure 3
MV [2] = assay: microbe, parasite or virus in culture; type: cell-based, measles virus; details: for EC50: MV in CHO-SLAM cells, co-treatment with viral inoculum, read-out: Antiviral effect EC50; for SI (selectivity index, CC50/EC50): MV, CHO-SLAM cells
RSV [3] = assay: Analysis of drug effects post viral entry; type: cell-based, respiratory syncytial virus; details: for protection, treatment post-infection: RSV, Figure 6
RSV [4] = assay: Viral cell-to-cell spread assay; type: cell-based, respiratory syncytial virus; details: for effect on viral plaque size (cell-to-cell spread): RSV, Figure 7
MV [5] = assay: Viral penetration assay; type: cell-based, measles virus
HCV [6] = assay: Viral inactivation assay; type: cell-based
RSV [7] = assay: Viral attachment assay, method 1 (host cell infection); type: cell-based, respiratory syncytial virus; details: for inhibition of virus attachment: RSV, method 1, 4°C, Figure 4
ADV-5 = assay: Dose-response antiviral assay (plaque assay); type: cell-based, human adenovirus type-5; details: Human adenovirus sp.; ADV-5 in A549 cells, co-treatment with viral inoculum; read-out: Antiviral effect EC50
HCMV [8] = assay: Viral cell-to-cell spread assay; type: cell-based, human cytomegalovirus; details: for effect on viral plaque size (cell-to-cell spread): HCMV, Figure 7
DENV-2 [9] = assay: Analysis of drug effects post viral entry; type: cell-based, dengue virus type 2; details: DENV-2; Figure 6
MV [10] = assay: Viral cell-to-cell spread assay; type: cell-based, measles virus; details: for effect on viral plaque size (cell-to-cell spread): MV, Figure 7
HCV [11] = assay: Viral attachment assay, method 2 (virus-specific cellular ELISA); type: cell-based, hepatitis C virus; details: HCV MOI 0.1, ELISA, 4°C; highest inhibitory concentration of the compounds
RSV [12] = assay: Viral penetration assay; type: cell-based, respiratory syncytial virus
HCV [13] = assay: Viral penetration assay; type: cell-based, hepatitis C virus; details: for inhibition at 50 µM: Hepatitis C virus, Huh7.5, read-out: Window of antiviral effects: Penetration, inhibitory effect relative to DMSO control
MV [14] = assay: Viral attachment assay, method 1 (host cell infection); type: cell-based, measles virus; details: for inhibition of entry (virus attachment): MV, method 1, 4°C, Figure 4, PUG more effective than CHLA
HCMV [15] = assay: Viral penetration assay; type: cell-based, human cytomegalovirus; details: for protection of the host cell from infection during virus penetration: HCMV, shift 4°C to 37°C, Figure 4
XTT cytotoxicity assay = type: cell-based
Experimental: Cells (1 × 10^4 per well of 96-well plate) were treated with the test compounds for 3 days. Treatment effects on cell viability (%) and the 50% cytotoxic concentration (CC50) values of the test compounds were determined based on the XTT (2,3-bis[2-methoxy-4-nitro-5-sulfophenyl]-5-phenylamino)-carbonyl]-2H-tetrazolium hydroxide) assay as previously reported.

[16] = cited from earlier work
DENV-2 [17] = assay: Viral attachment assay, method 2 (virus-specific cellular ELISA); type: cell-based, dengue virus type 2; details: DENV-2 MOI 5, ELISA, 4°C; highest inhibitory concentration of the compounds
HCMV [18] = assay: Dose-response antiviral assay (plaque assay); type: cell-based, human cytomegalovirus; details: for SI (selectivity index, CC50/EC50): HCMV, HEL cells; for EC50: HCMV in HEL cells, co-treatment with viral inoculum, read-out: Antiviral effect EC50
[19] = human respiratory syncytial virus, HEp-2, read-out: Window of antiviral effects: Free particle, inhibitory effect relative to DMSO control
[20] = human respiratory syncytial virus, HEp-2, read-out: Window of antiviral effects: Cell-to-cell spread, inhibitory effect relative to DMSO control
[21] = Measles morbillivirus, read-out: Window of antiviral effects: Penetration, inhibitory effect relative to DMSO control
[22] = Hepatitis C virus, Huh7.5, read-out: Window of antiviral effects: Free particle, inhibitory effect relative to DMSO control
[23] = human respiratory syncytial virus, HEp-2, read-out: Window of antiviral effects: Attachment Method 1, inhibitory effect relative to DMSO control
[24] = Human betaherpesvirus 5, HEL, read-out: Window of antiviral effects: Cell-to-cell spread, inhibitory effect relative to DMSO control
[25] = Measles morbillivirus, read-out: Window of antiviral effects: Cell-to-cell spread, inhibitory effect relative to DMSO control
[26] = human respiratory syncytial virus, HEp-2, read-out: Window of antiviral effects: Penetration, inhibitory effect relative to DMSO control
[27] = Measles morbillivirus, read-out: Window of antiviral effects: Attachment Method 1, inhibitory effect relative to DMSO control
[28] = Human betaherpesvirus 5, HEL, read-out: Window of antiviral effects: Penetration, inhibitory effect relative to DMSO control

## O=C1O[C@H]2[C@@H]3OC(=O)c4cc(O)c(O)c(O)c4-c4c(O)c(O)c5oc(=O)c6c(c(O)c(O)c7oc(=O)c4c5c76)-c4c(cc(O)c(O)c4O)C(=O)OC[C@H]3OC(O)[C@@H]2OC(=O)c2cc(O)c(O)c(O)c2-c2c1cc(O)c(O)c2O (mixture of isomers) [PUG, punicalagin]
RSV [1]
  block of infection after pre-incubation of free virus with compound: 60 – 80%
RSV [1]; [19]
  inhibition at 2 µM: > 75%
MV [2]
  EC50: 25.5 ± 2.94 µM
  SI (selectivity index, CC50/EC50): 11.13
MV [2]; Measles morbillivirus
  EC50: < 35 µM
RSV [3]
  protection, treatment post-infection: < 25%
RSV [3]; human respiratory syncytial virus, HEp-2, read-out: Window of antiviral effects: Post-infection, inhibitory effect relative to DMSO control
  inhibition at 2 µM: < 25%
RSV [4]
  effect on viral plaque size (cell-to-cell spread): unaffected and expanded further
RSV [4]; [20]
  inhibition at 2 µM: < 25%
MV [5]; MV, shift 4°C to 37°C, Figure 4
  protection of the host cell from infection during virus penetration: 50 – 90%
MV [5]; [21]
  inhibition at 50 µM: > 75%
HCV [6]; [22]
  inhibition at 50 µM: > 75%
HCV [6]; Hepatitis C virus, read-out: inhibition of infection after pre-incubation of free virus with compound
  inhibition at 50 µM: ~100%
RSV [7]
  inhibition of virus attachment: 90 – 100%
RSV [7]; [23]
  inhibition at 2 µM: > 75%
ADV-5
  EC50: 197 ± 20.1 µM
HCMV [8]
  effect on viral plaque size (cell-to-cell spread): near initial size
HCMV [8]; [24]
  inhibition at 40 µM: > 75%
DENV-2 [9]
  protection, treatment post-infection: < 25%
MV [10]
  effect on viral plaque size (cell-to-cell spread): near initial size
MV [10]; [25]
  inhibition at 50 µM: > 75%
HCV [11]
  Window of antiviral effects: Attachment Method 2, inhibitory effect relative to DMSO control: +++ (+++ > 75%)
RSV [12]; RSV, shift 4°C to 37°C, Figure 4
  protection of the host cell from infection during virus penetration: 50 – 90%
RSV [12]; [26]
  inhibition at 2 µM: > 75%
HCV [13]; HCV, shift 4°C to 37°C, Figure 4
  protection of the host cell from infection during virus penetration: 50 – 90%
HCV [13]
  inhibition at 50 µM: > 75%
MV [14]
  inhibition of entry (virus attachment): 50 – 80%
MV [14]; [27]
  inhibition at 50 µM: > 75%
HCMV [15]
  protection of the host cell from infection during virus penetration: 50 – 90%
HCMV [15]; [28]
  inhibition at 40 µM: 50 to 75%
XTT cytotoxicity assay; African green monkey, Vero cells, XTT assay, 3 days treatment, read-out: CC50
  CC50 at 3 days: 151 ± 9.31 µM
XTT cytotoxicity assay; Chinese hamster, CHO-SLAM cells, XTT assay, 3 days treatment, read-out: CC50
  CC50 at 3 days: 284 ± 11.5 µM
XTT cytotoxicity assay; human, A549 cells, 3 days treatment
  CC50 at 3 days: 319 ± 4.99 µM
XTT cytotoxicity assay; human, HEL cells, 3 days treatment
  CC50 at 3 days: 299 ± 9.14 µM
XTT cytotoxicity assay; human, HEp-2 cells, 3 days treatment
  CC50 at 3 days: 265 ± 23.7 µM
XTT cytotoxicity assay; human, Huh-7.5 cells, 3 days treatment
  CC50 at 3 days: 223 ± 3.41 µM
[16]; In vivo toxicological and metabolic studies, ref [67], [68]
  in vivo toxicity: minimal toxicity
DENV-2 [17]
  Window of antiviral effects: Attachment Method 2, inhibitory effect relative to DMSO control: +++ (+++ > 75%)
HCMV [18]
  SI (selectivity index, CC50/EC50): 17.86

## O=C(O)C[C@@H]1C(=O)O[C@H]2[C@@H]3OC(=O)c4cc(O)c(O)c(O)c4-c4c(cc(O)c(O)c4O)C(=O)OC[C@H]2O[C@@H](OC(=O)c2cc(O)c(O)c(O)c2)[C@@H]3OC(=O)c2cc(O)c(O)c3c2[C@H]1[C@H](O)C(=O)O3 [CHLA, chebulagic acid]
RSV [1]
  block of infection after pre-incubation of free virus with compound: 60 – 80%
RSV [1]; [19]
  inhibition at 1 µM: > 75%
MV [2]
  EC50: 34.4 ± 4.35 µM
  SI (selectivity index, CC50/EC50): 10.22
MV [2]; Measles morbillivirus
  EC50: < 35 µM
RSV [3]
  protection, treatment post-infection: < 25%
RSV [4]
  effect on viral plaque size (cell-to-cell spread): unaffected and expanded further
RSV [4]; [20]
  inhibition at 1 µM: < 25%
MV [5]; [21]
  inhibition at 90 µM: 50 to 75%
HCV [6]; [22]
  inhibition at 50 µM: > 75%
HCV [6]; Hepatitis C virus; read-out: inhibition of infection after pre-incubation of free virus with compound
  inhibition at 50 µM: ~100%
RSV [7]
  inhibition of virus attachment: 90 – 100%
RSV [7]; [23]
  inhibition at 1 µM: > 75%
ADV-5
  EC50: 198 ± 14.1 µM
HCMV [8]
  effect on viral plaque size (cell-to-cell spread): near initial size
HCMV [8]; [24]
  inhibition at 60 µM: > 75%
DENV-2 [9]
  protection, treatment post-infection: < 25%
MV [10]
  effect on viral plaque size (cell-to-cell spread): near initial size
MV [10]; [25]
  inhibition at 90 µM: > 75%
HCV [11]
  Window of antiviral effects: Attachment Method 2, inhibitory effect relative to DMSO control: +++ (+++ > 75%)
RSV [12]; [26]
  inhibition at 1 µM: 50 to 75%
HCV [13]
  inhibition at 50 µM: > 75%
MV [14]
  inhibition of entry (virus attachment): 50 – 80%
MV [14]; [27]
  inhibition at 90 µM: 50 to 75%
HCMV [15]
  protection of the host cell from infection during virus penetration: 50 – 90%
HCMV [15]; [28]
  inhibition at 60 µM: 50 to 75%
XTT cytotoxicity assay; African green monkey
  CC50 at 3 days: 160 ± 7.46 µM
XTT cytotoxicity assay; Chinese hamster
  CC50 at 3 days: 352 ± 4.54 µM
[16]; in vivo
  in vivo toxicity: minimal toxicity
DENV-2 [17]
  Window of antiviral effects: Attachment Method 2, inhibitory effect relative to DMSO control: +++ (+++ > 75%)
HCMV [18]
  EC50: 25.5 ± 1.51 µM
  SI (selectivity index, CC50/EC50): 12.01
HCMV [18]; Human betaherpesvirus 5, HEL
  EC50: < 35 µM

Reference: article PMC3750913 (BMC Microbiology, 2013)
